From patent US12252524B2, “GIP/GLP1 co-agonist compounds” (Eli Lilly and Company, priority 2018, dated 2025)
Numbered stars: 1 amine (or outer) side, 2 acyl side, 3 side chain; on linkers, the order of the positions; unused ones are H or OH. Square brackets hold non-standard residues; d marks the D form. Side chains are listed from the residue outwards. Peptide text beside a SMILES is read from it. * marks the point of attachment. C20 diacid = O=C(O)CCCCCCCCCCCCCCCCCCC(=O)*; C18 diacid = O=C(O)CCCCCCCCCCCCCCCCC(=O)*; αMePhe(2-F) = C[C@](N)(Cc1ccccc1F)C(=O)O; γGlu = O=C(O)[C@H](CCC(=O)[*:2])N[*:1]; AEEA = NCCOCCOCC(=O)O; Aib = CC(C)(N)C(=O)O

What was measured:
[1] = target: T1, human Gcg receptor (Homo sapiens, UniProt P47871); test: [125I]-Glucagon binding (SPA), human Gcg receptor; settings: read-out: hGLcgR Ki, nM (SEM, n)
T1 construct: expressed in transfected cells; crude membranes
Procedure, shortened: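 Crude membranes from cells expressing the receptor, prepared by hypotonic lysis in 50 mM Tris HCl pH 7.5 with protease inhibitors, homogenization and differential centrifugation, were used in a WGA-bead SPA. Binding buffer: 25 mM HEPES pH 7.4, 2.5 mM CaCl2, 1 mM MgCl2, bacitracin, Tween-20.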

[2] = target: T2, human GIP receptor (Homo sapiens, UniProt P48546); test: [125I]-GIP binding (SPA), human GIP receptor; settings: read-out: hGIPR Ki, nM (SEM, n)
T2 construct: expressed in transfected cells; crude membranes
T2 sequence (P48546 22-466): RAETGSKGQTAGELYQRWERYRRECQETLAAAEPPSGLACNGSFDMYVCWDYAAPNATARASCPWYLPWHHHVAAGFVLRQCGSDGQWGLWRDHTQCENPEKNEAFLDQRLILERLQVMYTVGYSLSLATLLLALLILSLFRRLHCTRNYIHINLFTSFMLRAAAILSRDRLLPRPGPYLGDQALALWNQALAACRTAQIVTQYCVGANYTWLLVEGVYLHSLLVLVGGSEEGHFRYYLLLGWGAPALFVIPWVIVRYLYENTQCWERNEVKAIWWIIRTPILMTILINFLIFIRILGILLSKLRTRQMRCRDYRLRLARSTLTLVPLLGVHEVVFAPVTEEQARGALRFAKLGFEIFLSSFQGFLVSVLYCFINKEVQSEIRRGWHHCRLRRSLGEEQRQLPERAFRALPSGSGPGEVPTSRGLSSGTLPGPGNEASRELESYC

[3] = target: human GLP-1 receptor (GLP-1R) (Homo sapiens, UniProt P43220); test: cAMP pharmacological functional assay in presence of casein, hGLP-1R; assay type: cell-based; settings: HEK293 cells expressing hGLP-1R, 0.1% Casein, geometric mean; read-out: hGLP1R cAMP Rel EC50 nM (SEM, n)
[4] = target: T3, gastric inhibitory peptide receptor (GIPR) (Homo sapiens, UniProt P48546); test: cAMP pharmacological functional assay in presence of casein, hGIPR; assay type: cell-based; settings: HEK293 cells expressing hGIPR, 0.1% Casein, geometric mean; read-out: hGIPR cAMP Rel EC50 nM (SEM, n)
T3 sequence (P48546 22-466): T2 sequence (P48546 22-466)

[5] = target: human GLP-1R (Homo sapiens, UniProt P43220); test: [125I]-GLP-1 binding (SPA), human GLP-1 receptor; parameters: expressed in transfected cells; crude membranes; settings: read-out: hGLP1R Ki, (nM) (SEM, n)
Procedure, shortened: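 Frozen cell pellets are lysed on ice in hypotonic Tris buffer, pH 7.5, homogenized, and centrifuged to a membrane pellet resuspended at about 1 to 3 mg/mL. Binding is then measured in HEPES-based buffer at pH 7.4, and curves are fitted to give IC50 and Ki.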

T1 sequence (P47871 26-477): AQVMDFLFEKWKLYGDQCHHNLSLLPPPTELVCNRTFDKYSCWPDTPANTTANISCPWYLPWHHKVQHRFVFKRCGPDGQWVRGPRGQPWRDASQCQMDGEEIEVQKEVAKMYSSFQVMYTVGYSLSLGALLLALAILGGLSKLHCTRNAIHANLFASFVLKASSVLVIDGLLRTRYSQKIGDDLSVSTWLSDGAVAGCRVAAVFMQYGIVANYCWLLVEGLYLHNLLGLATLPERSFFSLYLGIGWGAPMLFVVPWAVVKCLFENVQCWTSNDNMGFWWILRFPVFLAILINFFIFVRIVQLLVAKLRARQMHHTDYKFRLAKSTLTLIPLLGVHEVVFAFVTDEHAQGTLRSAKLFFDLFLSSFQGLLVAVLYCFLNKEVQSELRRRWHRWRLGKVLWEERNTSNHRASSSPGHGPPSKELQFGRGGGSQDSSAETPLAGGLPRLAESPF
human GLP-1 receptor (GLP-1R), sequence (P43220 24-463): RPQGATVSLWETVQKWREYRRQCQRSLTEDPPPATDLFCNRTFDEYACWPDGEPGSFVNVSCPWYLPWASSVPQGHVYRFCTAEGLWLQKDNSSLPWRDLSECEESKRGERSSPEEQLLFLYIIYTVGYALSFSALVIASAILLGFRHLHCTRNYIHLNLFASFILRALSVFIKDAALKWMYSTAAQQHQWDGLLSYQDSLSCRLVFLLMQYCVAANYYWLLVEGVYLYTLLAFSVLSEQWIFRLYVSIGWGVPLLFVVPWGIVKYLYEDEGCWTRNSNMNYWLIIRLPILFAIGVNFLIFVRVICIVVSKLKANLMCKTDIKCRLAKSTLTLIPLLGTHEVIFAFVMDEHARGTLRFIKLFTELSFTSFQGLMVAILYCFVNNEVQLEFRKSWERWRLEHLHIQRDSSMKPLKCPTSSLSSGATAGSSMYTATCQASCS
human GLP-1R, sequence (P43220 24-463): as above

Structure (SMILES)	Ki [1] [nM]	Ki [2] [nM]	EC50 [3] [nM]	EC50 [4] [nM]	Ki [5] [nM]
CC[C@H](C)[C@H](NC(=O)[C@H](CC(C)C)NC(=O)[C@H](Cc1ccc(O)cc1)NC(=O)[C@H](CCC(=O)O)NC(=O)[C@@H](NC(=O)[C@H](Cc1ccccc1)NC(=O)[C@H](CCC(=O)O)NC(=O)C(C)(C)NC(=O)[C@H](CCC(N)=O)NC(=O)[C@H](C)NC(=O)[C@H](CCCCNC(=O)COCCOCCNC(=O)COCCOCCNC(=O)CC[C@H](NC(=O)CCCCCCCCCCCCCCCCC(=O)O)C(=O)O)NC(=O)[C@H](CCCCN)NC(=O)[C@H](CC(=O)O)NC(=O)[C@H](CC(C)C)NC(=O)[C@H](CC(C)C)NC(=O)[C@@H](NC(=O)[C@H](CO)NC(=O)[C@H](Cc1ccc(O)cc1)NC(=O)[C@H](CC(=O)O)NC(=O)[C@H](CO)NC(=O)[C@@H](NC(=O)[C@](C)(Cc1ccccc1F)NC(=O)[C@@H](NC(=O)CNC(=O)[C@H](CCC(=O)O)NC(=O)C(C)(C)NC(=O)[C@@H](N)Cc1ccc(O)cc1)[C@@H](C)O)[C@@H](C)O)[C@@H](C)CC)[C@@H](C)CC)C(=O)N[C@@H](C)C(=O)NCC(=O)NCC(=O)N1CCC[C@H]1C(=O)N[C@@H](CO)C(=O)N[C@@H](CO)C(=O)NCC(N)=O [Example 314] (H-Y[Aib]EGT[αMePhe(2-F)]TSDYSILLDKK([AEEA-AEEA-γGlu-C18 diacid])AQ[Aib]EFIEYLIAGGPSSG-NH2)	116	0.027	0.029	0.029	0.717
CC[C@H](C)[C@H](NC(=O)[C@H](CC(C)C)NC(=O)[C@H](Cc1ccc(O)cc1)NC(=O)[C@H](CCC(=O)O)NC(=O)[C@@H](NC(=O)[C@H](Cc1ccccc1)NC(=O)[C@H](C)NC(=O)C(C)(C)NC(=O)[C@H](CCC(N)=O)NC(=O)[C@H](C)NC(=O)[C@H](CCCCNC(=O)COCCOCCNC(=O)COCCOCCNC(=O)CC[C@H](NC(=O)CCCCCCCCCCCCCCCCCCC(=O)O)C(=O)O)NC(=O)[C@H](CCCCN)NC(=O)[C@H](CC(=O)O)NC(=O)[C@H](CC(C)C)NC(=O)[C@H](CC(C)C)NC(=O)[C@@H](NC(=O)[C@@H](CO)NC(=O)[C@H](Cc1ccc(O)cc1)NC(=O)[C@H](CC(=O)O)NC(=O)[C@H](CO)NC(=O)[C@@H](NC(=O)[C@H](Cc1ccccc1)NC(=O)[C@@H](NC(=O)CNC(=O)[C@H](CCC(=O)O)NC(=O)C(C)(C)NC(=O)[C@@H](N)Cc1ccc(O)cc1)[C@@H](C)O)[C@@H](C)O)[C@@H](C)CC)[C@@H](C)CC)C(=O)N[C@@H](CCC(=O)O)C(=O)NCC(=O)NCC(=O)N1CCC[C@H]1C(=O)N[C@@H](CO)C(=O)N[C@@H](CO)C(=O)NCC(=O)N[C@@H](C)C(=O)N1CCC[C@H]1C(=O)N1CCC[C@H]1C(=O)N1CCC[C@H]1C(=O)N[C@@H](CO)C(N)=O [Example 81]	344	0.198	1.29	0.428	2.88
CC[C@H](C)[C@H](NC(=O)[C@H](CCCCN)NC(=O)[C@H](CC(=O)O)NC(=O)[C@H](CC(C)C)NC(=O)[C@H](CC(C)C)NC(=O)[C@@H](NC(=O)[C@H](CO)NC(=O)[C@H](Cc1ccc(O)cc1)NC(=O)[C@H](CC(=O)O)NC(=O)[C@H](CO)NC(=O)[C@@H](NC(=O)[C@H](Cc1ccccc1)NC(=O)[C@@H](NC(=O)CNC(=O)[C@H](CCC(=O)O)NC(=O)C(C)(C)NC(=O)[C@@H](N)Cc1ccc(O)cc1)[C@@H](C)O)[C@@H](C)O)[C@@H](C)CC)C(=O)N[C@@H](C)C(=O)N[C@@H](CCC(N)=O)C(=O)NC(C)(C)C(=O)N[C@@H](CCCCNC(=O)COCCOCCNC(=O)COCCOCCNC(=O)CC[C@H](NC(=O)CCCCCCCCCCCCCCCCCCC(=O)O)C(=O)O)C(=O)N[C@@H](Cc1ccccc1)C(=O)N[C@H](C(=O)N[C@@H](CCC(=O)O)C(=O)N[C@@H](Cc1ccc(O)cc1)C(=O)N[C@@H](CC(C)C)C(=O)N[C@H](C(=O)N[C@@H](CCC(=O)O)C(=O)NCC(=O)NCC(=O)N1CCC[C@H]1C(=O)N[C@@H](CO)C(=O)N[C@@H](CO)C(=O)NCC(=O)N[C@@H](C)C(=O)N1CCC[C@H]1C(=O)N1CCC[C@H]1C(=O)N1CCC[C@H]1C(=O)N[C@@H](CO)C(N)=O)[C@@H](C)CC)[C@@H](C)CC [Example 32] (H-Y[Aib]EGTFTSDYSILLDKIAQ[Aib]K([AEEA-AEEA-γGlu-C20 diacid])FIEYLIEGGPSSGAPPPS-NH2)	44.7	0.0205	0.498	0.179	3.96
